# Measured values taken from patent US20200247761A1, “SULFONAMIDE OR AMIDE COMPOUNDS, COMPOSITIONS AND METHODS FOR THE PROPHYLAXIS AND/OR TREATMENT OF AUTOIMMUNE, INFLAMMATION OR INFECTION RELATED DISORDERS” (TAIWANJ PHARMACEUTICALS CO., LTD, priority 2017, published 2020).
# Test system: HEK293 cells
# Experiment: Cell viability (MTT) of the TLR4-expressing HEK293 cells
# Format: cell-based
# Settings: Test Con. 10 μM, percentage of viable LPS-stimulated cells
# Procedure: (§1) RAW264.7 cells (1.6×10^5 cells/well) or HEK 293 cells (2.5-5.0×10^4 cells/well) were seeded in 96-well plate overnight and treated with different compounds for 16-24 hours. Cells' growth were determined by MTT-based colorimetric assays. Viability of the test cells treated with vehicle (0.5% DMSO) only was defined as 100% viable. Survival of cells after treatment with DETDs was calculated using the following formula: viable cell number (%)=OD570 (treated cell culture)/OD570 (vehicle control)×100.
# The cell viability assay was performed by the MTT method. Cells were incubated with 45 μl of 5 mg/ml MTT for 1 hour at 37° C., and 150 μl of DMSO was added at the end of culture to dissolve the crystals. The signals of individual samples in 96-well plates were detected at O.D.570 nm with a Molecular Devices SpectraMax i3 Imaging Cytometer. Cell viability was expressed in percentage of viable LPS-stimulated cells.
row,Structure (SMILES),Cell Viability (%) mean [%]
1,C=CC(=O)N(c1ccc(F)cc1Cl)S(=O)(=O)N1CCCC1 [Compound 50],85.1
2,C=CC(=O)N(c1ccc(F)cc1Cl)S(=O)(=O)c1ccc(F)cc1Cl [Compound 30],94.0
3,C=C(C)C(=O)Nc1ccccc1S(=O)(=O)Nc1ccc(F)cc1Cl [Compound 45],100.7
4,C=CC(=O)Nc1ccccc1S(=O)(=O)Nc1ccc(F)cc1Cl [Compound 44],81.4
5,C=CC(=O)N(c1ccc(F)cc1Cl)S(=O)(=O)c1c(C)noc1C [Compound 34],63.0
6,C=CC(=O)N(c1ccc(F)cc1Cl)S(=O)(=O)c1ccccc1 [Compound 19],80
7,C=CC(=O)N(c1ccc(F)cc1Cl)S(=O)(=O)c1ccccc1C(=O)OC [Compound 24],88.5
8,C=CC(=O)N(c1ccc(F)cc1Cl)S(=O)(=O)c1ccccc1S(C)(=O)=O [Compound 32],84.5
9,C=CC(=O)N(C1CC1)S(=O)(=O)c1ccc(F)cc1Cl [Compound 40],85.5

# Test system: RAW264.7 cells
# Experiment: Cell viability (MTT) of RAW264.7 cells
# Format: cell-based
# Settings: Table 2; 10 μM
# Procedure: as §1
# The cell viability assay was performed by the MTT method, in which cells were incubated with 45 μl of 5 mg/ml MTT for 1 hour at 37° C., and 150 μl of DMSO was added at the end of culture to dissolve the crystals. The signals of individual samples in 96-well plates were detected at O.D.570 nm with a Molecular Devices SpectraMax i3 Imaging Cytometer. Cell viability was expressed in percentage of viable LPS-stimulated cells.
row,Structure (SMILES),toxic activity toward RAW264.7 cells (in words)
1,C=CC(=O)N(c1ccc(F)cc1Cl)S(=O)(=O)N1CCCC1 [Compound 50],negligible to no toxic activity
2,C=CC(=O)N(c1ccc(F)cc1Cl)S(=O)(=O)c1ccc(F)cc1Cl [Compound 30],negligible to no toxic activity
3,C=C(C)C(=O)Nc1ccccc1S(=O)(=O)Nc1ccc(F)cc1Cl [Compound 45],negligible to no toxic activity
4,C=CC(=O)Nc1ccccc1S(=O)(=O)Nc1ccc(F)cc1Cl [Compound 44],negligible to no toxic activity
5,C=CC(=O)N(C1CC1)S(=O)(=O)c1ccc(F)cc1Cl [Compound 40],negligible to no toxic activity

# Same assay, conditions: Test Con. 10 μM; MTT; RAW264.7 cells; percentage of viable LPS-stimulated cells
row,Structure (SMILES),Cell Viability (%) mean [%]
1,C=CC(=O)N(c1ccc(F)cc1Cl)S(=O)(=O)N1CCCC1 [Compound 50],97.6
2,C=CC(=O)N(c1ccc(F)cc1Cl)S(=O)(=O)c1ccc(F)cc1Cl [Compound 30],99.7
3,C=C(C)C(=O)Nc1ccccc1S(=O)(=O)Nc1ccc(F)cc1Cl [Compound 45],98.3
4,C=CC(=O)Nc1ccccc1S(=O)(=O)Nc1ccc(F)cc1Cl [Compound 44],96.1
5,C=CC(=O)N(c1ccc(F)cc1Cl)S(=O)(=O)c1c(C)noc1C [Compound 34],53.9
6,C=CC(=O)N(c1ccc(F)cc1Cl)S(=O)(=O)c1ccccc1 [Compound 19],38.1
7,C=CC(=O)N(c1ccc(F)cc1Cl)S(=O)(=O)c1ccccc1C(=O)OC [Compound 24],54.5
8,C=CC(=O)N(c1ccc(F)cc1Cl)S(=O)(=O)c1ccccc1S(C)(=O)=O [Compound 32],48.3
9,C=CC(=O)N(C1CC1)S(=O)(=O)c1ccc(F)cc1Cl [Compound 40],93.5

# Target: T1, Toll-like receptor 4 (TLR4) (Homo sapiens, UniProt O00206)
# T1 construct: expressed in transfected cells; host or cells: HEK293 cells engineered to express TLR4
# Experiment: TLR4 activity: NF-κB-inducible SEAP reporter in LPS-stimulated TLR4-expressing HEK293 cells
# Format: cell-based
# Settings: Test Con. 10 μM; LPS 10 ng/ml; 16-24 hours; HEK293 cells expressing TLR4; read-out: TLR-4 inhibition (%) mean
# Procedure: Stimulation of the Toll-like receptor 4 (TLR4) was determined by assessing activation of the transcription factor NF-κB in HEK293 cells that were engineered to express TLR4. Assessment of TLR4 stimulation was based on the use of an NE-κB-inducible secreted alkaline phosphatase (SEAP) reporter system in which the SEAP reporter was under the control of a promoter inducible by NF-κB. Thus, the degree of activation of TLR4 can be indirectly quantified spectrophotometrically by measuring the amount of the SEAP reporter that is produced.
# The TLR4-expressing cells were plated in HEK-Blue Detection (Invivogen, San Diego, Calif.) medium in a 96-well plate (25,000-50,000 cells/well). The cells were stimulated with lipopolysaccharides (LPS) alone or in combination with the compound of Example 1. Cell culture without LPS and the compound of Example 1 was defined as baseline control. To test whether the compound of Example 1 could block that activation of the TLR4, the cells were treated with the designated compound (10, 20 or 100 μM) and LPS (final conc. 10 ng/ml/well). After an incubation period (16-24 hours) at 37° C. in a CO2 incubator, the signals of individual samples in 96-well plates were detected at O.D.650 nm with a Molecular Devices SpectraMax i3 Imaging Cytometer. The TLR4 activity was expressed in percentage of LPS alone-stimulated cells minus baseline control.
# T1 sequence (O00206 24-839, species assumed): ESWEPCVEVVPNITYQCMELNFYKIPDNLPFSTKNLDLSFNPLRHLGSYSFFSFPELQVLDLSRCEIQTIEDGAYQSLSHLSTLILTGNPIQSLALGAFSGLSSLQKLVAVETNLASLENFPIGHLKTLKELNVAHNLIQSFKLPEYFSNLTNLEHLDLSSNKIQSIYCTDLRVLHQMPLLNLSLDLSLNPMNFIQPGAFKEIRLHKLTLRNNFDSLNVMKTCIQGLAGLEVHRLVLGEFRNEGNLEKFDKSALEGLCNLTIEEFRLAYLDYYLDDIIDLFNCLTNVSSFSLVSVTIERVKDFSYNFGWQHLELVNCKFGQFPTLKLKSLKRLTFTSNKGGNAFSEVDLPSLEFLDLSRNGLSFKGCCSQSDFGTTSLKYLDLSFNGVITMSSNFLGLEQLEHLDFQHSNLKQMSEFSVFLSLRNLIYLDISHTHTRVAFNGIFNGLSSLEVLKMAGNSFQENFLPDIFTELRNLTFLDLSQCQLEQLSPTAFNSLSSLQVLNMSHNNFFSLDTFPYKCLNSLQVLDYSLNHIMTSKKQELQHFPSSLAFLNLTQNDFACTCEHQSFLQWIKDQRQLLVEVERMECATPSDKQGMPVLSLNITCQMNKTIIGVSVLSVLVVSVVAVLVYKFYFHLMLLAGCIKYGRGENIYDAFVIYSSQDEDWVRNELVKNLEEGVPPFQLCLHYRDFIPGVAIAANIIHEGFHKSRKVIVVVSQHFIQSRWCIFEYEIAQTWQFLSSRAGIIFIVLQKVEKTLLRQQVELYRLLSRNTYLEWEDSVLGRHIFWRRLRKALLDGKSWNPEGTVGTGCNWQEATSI
# T1 sequence (Q9Y6Y9 17-160 partner limits assumed, species assumed): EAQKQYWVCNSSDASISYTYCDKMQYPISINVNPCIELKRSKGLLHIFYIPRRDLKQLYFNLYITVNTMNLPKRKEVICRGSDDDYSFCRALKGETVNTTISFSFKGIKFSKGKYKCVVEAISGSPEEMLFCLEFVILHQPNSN
row,Structure (SMILES),inhibition at 10 µM [%]
1,C=CC(=O)N(c1ccc(F)cc1Cl)S(=O)(=O)N1CCCC1 [Compound 50],76
2,C=CC(=O)N(c1ccc(F)cc1Cl)S(=O)(=O)c1ccc(F)cc1Cl [Compound 30],94.8
3,C=C(C)C(=O)Nc1ccccc1S(=O)(=O)Nc1ccc(F)cc1Cl [Compound 45],65.6
4,C=CC(=O)Nc1ccccc1S(=O)(=O)Nc1ccc(F)cc1Cl [Compound 44],100
5,C=CC(=O)N(c1ccc(F)cc1Cl)S(=O)(=O)c1c(C)noc1C [Compound 34],100
6,C=CC(=O)N(c1ccc(F)cc1Cl)S(=O)(=O)c1ccccc1 [Compound 19],100
7,C=CC(=O)N(c1ccc(F)cc1Cl)S(=O)(=O)c1ccccc1C(=O)OC [Compound 24],100
8,C=CC(=O)N(c1ccc(F)cc1Cl)S(=O)(=O)c1ccccc1S(C)(=O)=O [Compound 32],100
9,C=CC(=O)N(C1CC1)S(=O)(=O)c1ccc(F)cc1Cl [Compound 40],100

# Same assay, conditions: summary of Table 1 (10, 20 or 100 μM)
row,Structure (SMILES),activity towards TLR-4 (in words)
1,C=CC(=O)N(c1ccc(F)cc1Cl)S(=O)(=O)N1CCCC1 [Compound 50],moderate inhibitory activity
2,C=CC(=O)N(c1ccc(F)cc1Cl)S(=O)(=O)c1ccc(F)cc1Cl [Compound 30],strong antagonist
3,C=C(C)C(=O)Nc1ccccc1S(=O)(=O)Nc1ccc(F)cc1Cl [Compound 45],moderate inhibitory activity
4,C=CC(=O)Nc1ccccc1S(=O)(=O)Nc1ccc(F)cc1Cl [Compound 44],strong antagonist
5,C=CC(=O)N(c1ccc(F)cc1Cl)S(=O)(=O)c1c(C)noc1C [Compound 34],strong antagonist
6,C=CC(=O)N(c1ccc(F)cc1Cl)S(=O)(=O)c1ccccc1 [Compound 19],strong antagonist
7,C=CC(=O)N(c1ccc(F)cc1Cl)S(=O)(=O)c1ccccc1C(=O)OC [Compound 24],strong antagonist
8,C=CC(=O)N(c1ccc(F)cc1Cl)S(=O)(=O)c1ccccc1S(C)(=O)=O [Compound 32],strong antagonist
9,C=CC(=O)N(C1CC1)S(=O)(=O)c1ccc(F)cc1Cl [Compound 40],strong antagonist

# Test system: mTNF-α secretion from LPS-stimulated RAW264.7 monocytes
# Experiment: LPS induced mTNF-α release from RAW264.7 cells (ELISA)
# Format: cell-based
# Settings: Mus musculus, RAW264.7; Table 2; 10 μM; read-out: inhibition of LPS induced mTNF-α release from RAW264.7 cells
# Procedure: To confirm whether the inhibitory effect of the selected compounds of example 2.1 (i.e., Compounds 12, 15, 19, 20, 22, 24, 28, 30, 32, 34, 36, 38, 40, 42, 44, 45, 49, 50, 52 and 70) translates to anti-inflammation, they were further tested to see if any of them may suppress mTNF-α secretion from lipopolysaccharide (LPS)-stimulated RAW264.7 monocytes.
# To this purpose, RAW264.7 cells were seeded at 1.6×10^5 cells/well into 96-well culture plates. Test compounds (i.e., Compounds 12, 15, 19, 20, 22, 24, 28, 30, 32, 34, 36, 38, 40, 42, 44, 45, 49, 50, 52 and 70, respectively at 10 μM) were added into the culture plates in triplicate and co-cultured at 37° C. in 5% CO2 for 30 minutes. LPS (final conc. 10 ng/ml/well) was then added into the culture plates and the cells were incubated for another 4 hours. At the end of culture, the cultured media were harvested for mTNF-α quantification by ELISA with commercial assay kits (R&D Systems, Minneapolis, Minn.) following the manufacturer's protocol. Signals of the individual samples in 96-well plates were detected at O.D.450 nm/570 nm with a Molecular Devices SpectraMax i3 Imaging Cytometer. The mTNF-α activity was expressed in percentage of viable LPS-stimulated cells without test compound treatment.
row,Structure (SMILES),inhibition at 10 µM [%]
1,C=CC(=O)N(c1ccc(F)cc1Cl)S(=O)(=O)N1CCCC1 [Compound 50],85 to 100
2,C=CC(=O)N(c1ccc(F)cc1Cl)S(=O)(=O)c1ccc(F)cc1Cl [Compound 30],85 to 100
3,C=C(C)C(=O)Nc1ccccc1S(=O)(=O)Nc1ccc(F)cc1Cl [Compound 45],~40
4,C=CC(=O)Nc1ccccc1S(=O)(=O)Nc1ccc(F)cc1Cl [Compound 44],85 to 100
5,C=CC(=O)N(c1ccc(F)cc1Cl)S(=O)(=O)c1c(C)noc1C [Compound 34],85 to 100
6,C=CC(=O)N(c1ccc(F)cc1Cl)S(=O)(=O)c1ccccc1 [Compound 19],85 to 100
7,C=CC(=O)N(c1ccc(F)cc1Cl)S(=O)(=O)c1ccccc1C(=O)OC [Compound 24],85 to 100
8,C=CC(=O)N(c1ccc(F)cc1Cl)S(=O)(=O)c1ccccc1S(C)(=O)=O [Compound 32],85 to 100
9,C=CC(=O)N(C1CC1)S(=O)(=O)c1ccc(F)cc1Cl [Compound 40],85 to 100

# Same assay, conditions: Mus musculus; Test Con. 10 μM; LPS 10 ng/ml, 4 hours; RAW264.7 cells; read-out: mTNF-α inhibition (%) mean
row,Structure (SMILES),inhibition at 10 µM [%]
1,C=CC(=O)N(c1ccc(F)cc1Cl)S(=O)(=O)N1CCCC1 [Compound 50],86.1
2,C=CC(=O)N(c1ccc(F)cc1Cl)S(=O)(=O)c1ccc(F)cc1Cl [Compound 30],82.9
3,C=C(C)C(=O)Nc1ccccc1S(=O)(=O)Nc1ccc(F)cc1Cl [Compound 45],41.1
4,C=CC(=O)Nc1ccccc1S(=O)(=O)Nc1ccc(F)cc1Cl [Compound 44],94.1
5,C=CC(=O)N(c1ccc(F)cc1Cl)S(=O)(=O)c1c(C)noc1C [Compound 34],98.5
6,C=CC(=O)N(c1ccc(F)cc1Cl)S(=O)(=O)c1ccccc1 [Compound 19],96.1
7,C=CC(=O)N(c1ccc(F)cc1Cl)S(=O)(=O)c1ccccc1C(=O)OC [Compound 24],96
8,C=CC(=O)N(c1ccc(F)cc1Cl)S(=O)(=O)c1ccccc1S(C)(=O)=O [Compound 32],97.5
9,C=CC(=O)N(C1CC1)S(=O)(=O)c1ccc(F)cc1Cl [Compound 40],99.7
